Test results taken from paper PMC9181691, “Characterization of the Biomass Degrading Enzyme GuxA from Acidothermus cellulolyticus” (International Journal of Molecular Sciences, 2022).

Target: T1, GuxA GH12 domain (Acidothermus cellulolyticus, UniProt A0LSH8)
T1 construct: gene Acel_0615; GH12 catalytic domain only (between CBM3 and CBM2 of full-length GuxA), codon optimized, C-terminal hexahistidine tag, pET22b(+), E. coli BL21(DE3), 24 kDa
Experiment: X-ray crystallography, crystal soak
Assay type: binding
Settings: 24 h soak with excess cellobiose powder; crystals from 10% PEG 8K, 0.2 M ZnCl2, 0.1 M Na cacodylate pH 6.5; active site groove

T1 sequence (A0LSH8 entry or part of it): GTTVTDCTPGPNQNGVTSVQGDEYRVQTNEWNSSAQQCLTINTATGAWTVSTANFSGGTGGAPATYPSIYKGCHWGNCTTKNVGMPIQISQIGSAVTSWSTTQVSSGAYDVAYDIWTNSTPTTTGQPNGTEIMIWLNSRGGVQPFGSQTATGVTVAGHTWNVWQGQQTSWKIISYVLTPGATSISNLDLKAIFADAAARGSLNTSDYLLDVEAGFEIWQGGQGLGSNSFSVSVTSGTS

## OC[C@H]1O[C@@H](O[C@H]2[C@H](O)[C@@H](O)C(O)O[C@@H]2CO)[C@H](O)[C@@H](O)[C@@H]1O (stereo partly shown) [cellobiose]
  X-ray crystallography, crystal soak: A cellobiose molecule was found and modeled in the active site groove.
